Measured values from ChEMBL document CHEMBL1124140, “Oxidants, oxidant drugs, and malaria” (J Med Chem, 1988).

What was measured:
[1] = system: Plasmodium falciparum; assay: Inhibitory activity against chloroquine-resistant Plasmodium falciparum; assay type: functional, organism-based
[2] = system: Plasmodium falciparum; assay: (§1) Inhibitory activity against Chloroquine-sensitive Plasmodium falciparum; assay type: functional, organism-based
[3] = system: Plasmodium falciparum; assay: as §1; assay type: functional; conditions: read-out: ED50 (the source's name)
[4] = system: Plasmodium falciparum; assay: Inhibitory activity against Chloroquine-resistant Plasmodium falciparum; assay type: functional; conditions: read-out: ED50 (the source's name)
[5] = system: Plasmodium falciparum; assay: (§2) In vitro inhibition against Plasmodium falciparum; assay type: functional, organism-based
[6] = system: Plasmodium falciparum; assay: In vitro inhibition against Plasmodium falciparum; […]; assay type: functional, organism-based
[7] = system: Plasmodium falciparum; assay: as §2; assay type: functional; conditions: read-out: ED50 (the source's name)

Work on CC(C)(C)OC(=O)OC1CCC2C[C@@H]3C=CC2(OO3)C1(C)C (some centres not stated) yielded an IC50 [1] of 330 nM and an IC50 [2] of 190 nM.
Molecule CC(C)C12CCC(C)(CC1)OO2 has an EC50 [3] of 80 nM and an EC50 [4] of 210 nM.
In the case of CC(C)(C)COO, the IC50 [5] is reported as 41000 nM.
C[C@@H]1CC[C@H]2[C@@H](C)C(=O)O[C@@H]3O[C@@]4(C)CC[C@@H]1[C@]32OO4 [ARTEMISININ] was tested, and the IC50 [6] was 4 nM.
CC1=C2[C@H]3OC(=O)[C@@H](C)[C@@H]3CC[C@@]2(C)C=CC1=O [SANTONIN] was tested, and the EC50 [7] was 2800 nM.
